Assay results reported in US10123537B2, “Amide compound or salt thereof, agricultural and horticultural insecticide and microbicide comprising the compound, and method for using the insecticide and microbicide” (NIHON NOHYAKU CO., LTD., priority 2013, dated 2018).

Experiments:
Tetranychus urticae = assay: Acaricidal test on Tetranychus urticae; assay type: in vivo; conditions: 500 ppm, kidney bean leaf disks dipped about 30 seconds, female adults, two days later, 25° C.
From the text: Acaricidal Test on Tetranychus urticae

Meloidogyne incognita = assay: Nematicidal test on Meloidogyne incognita; assay type: in vivo; conditions: 500 ppm, 1 mL soil drench, potted melon seedlings, 8 days after inoculation
Description: Nematicidal Test on Meloidogyne incognita
Agrochemical formulations containing different amide compounds represented by the general formula (I) of the present invention or salts thereof as an active ingredient were separately diluted to a concentration of 500 ppm. The diluted agrochemical formulations (1 mL) were drenched into the soil around the foot of potted melon seedlings. At one day after the agrochemical treatment, an aqueous suspension of Meloidogyne incognita (about 500 worms/mL) was drenched into the soil for inoculation both in a treatment plot and in a non-treatment plot. The inoculated pots were kept in a greenhouse at 25° C. At 8 days after the inoculation, the root of each seedling was washed with water, the number of root nodules was counted, and the nematicidal effect was evaluated according to the following criteria.
A: the percentage of the number of root nodules relative to the non-treatment plot is 0%.
B: the percentage of the number of root nodules relative to the non-treatment plot is 1 to 10%.
C: the percentage of the number of root nodules relative to the non-treatment plot is 11 to 20%.
D: the percentage of the number of root nodules relative to the non-treatment plot is 21 to 50%.

[1] = tested on: wheat powdery mildew fungus Erysiphe graminis; conditions: 200 ppm, foliar application to wheat plants, 10 mL per pot, 7 days after inoculation

| SMILES | acaricidal effect (corrected mortality rate) activity level (Tetranychus urticae) | nematicidal effect (number of root nodules relative to non-treatment plot) activity level (Meloidogyne incognita) | control effect (control rate, lesion area) activity level [1] |
| --- | --- | --- | --- |
| CCSc1cc(C(F)(F)F)ccc1C(=O)N(CC)c1ccc(C(F)(F)F)cn1 [Compound 1-4] | D or higher | D or higher |  |
| CCSc1cc(C(F)(F)F)ccc1C(=O)N(c1ccc(C(F)(F)F)cn1)C1CC1 [Compound 1-7] |  | D or higher |  |
| CC[S+]([O-])c1cc(C(F)(F)F)ccc1C(=O)N(c1ccc(C(F)(F)F)cn1)C1CC1 (centres unmarked) [Compound 1-8] | D or higher | D or higher |  |
| CCSc1cc(C(F)(F)F)cnc1C(=O)N(CC)c1ccc(C(F)(F)F)cn1 [Compound 1-10] |  | D or higher | D or higher |
| CCN(C(=O)c1ncc(C(F)(F)F)cc1S(=O)(=O)CC)c1ccc(C(F)(F)F)cn1 [Compound 1-12] |  | D or higher |  |
| CCSc1cc(C(F)(F)F)cnc1C(=O)N(c1ccc(C(F)(F)F)cn1)C1CC1 [Compound 1-13] |  | D or higher |  |
| CC[S+]([O-])c1cc(C(F)(F)F)cnc1C(=O)N(c1ccc(C(F)(F)F)cn1)C1CC1 (centres unmarked) [Compound 1-14] |  |  | D or higher |
| CCS(=O)(=O)c1cc(C(F)(F)F)cnc1C(=O)N(c1ccc(C(F)(F)F)cn1)C1CC1 [Compound 1-15] |  |  | D or higher |
| CCS(=O)(=O)c1cc(C(F)(F)F)ccc1C(=O)N(C)c1ccc(C(F)(C(F)(F)F)C(F)(F)F)cn1 [Compound 1-21] |  | D or higher | D or higher |
| CCSc1cc(C(F)(F)F)ccc1C(=O)N(C)c1ccc(C(F)(C(F)(F)F)C(F)(F)F)nc1 [Compound 1-22] |  |  | D or higher |
| CCS(=O)(=O)c1cc(C(F)(F)F)ccc1C(=O)N(C)c1ccc(C(F)(C(F)(F)F)C(F)(F)F)nc1 [Compound 1-24] |  | D or higher |  |
| CCS(=O)(=O)c1cc(C(F)(F)C(F)(F)F)ccc1C(=O)N(C)c1ccc(C(F)(F)F)cn1 [Compound 1-44] |  | D or higher |  |
| CCSc1cc(C(F)(F)F)ccc1C(=O)N(C)c1ccc(C(F)(F)F)nn1 [Compound 2-1] |  | D or higher |  |
| CCS(=O)(=O)c1cc(C(F)(F)F)ccc1C(=O)N(C)c1ccc(C(F)(F)F)nn1 [Compound 2-3] |  | D or higher |  |
| CCSc1cc(C(F)(F)F)ccc1C(=O)N(C)c1ccc(C(OC)(C(F)(F)F)C(F)(F)F)cc1 [Compound 3-4] | D or higher |  |  |
| CCSc1cc(C(F)(F)F)ccc1C(=O)N(C)c1ccc(C(F)(C(F)(F)F)C(F)(F)F)cc1 [Compound 3-7] |  | D or higher |  |
| CC[S+]([O-])c1cc(C(F)(F)F)ccc1C(=O)N(C)c1ccc(C(F)(C(F)(F)F)C(F)(F)F)cc1 (centres unmarked) [Compound 3-8] |  | D or higher |  |
| CCS(=O)(=O)c1cc(C(F)(F)F)ccc1C(=O)N(C)c1ccc(C(F)(C(F)(F)F)C(F)(F)F)cc1 [Compound 3-9] |  | D or higher | D or higher |
| CCSc1cc(C(F)(F)F)ccc1C(=O)N(C)c1ccc(OC(F)(F)F)cc1 [Compound 3-12] |  | D or higher | D or higher |
| CC[S+]([O-])c1cc(C(F)(F)F)ccc1C(=O)N(C)c1ccc(OC(F)(F)F)cc1 (centres unmarked) [Compound 3-13] |  |  | D or higher |
| CC[S+]([O-])c1cc(C(F)(F)F)ccc1C(=O)N(C)c1ccc(SC(F)(F)F)cc1 (centres unmarked) [Compound 3-16] |  |  | D or higher |
| CCS(=O)(=O)c1cc(C(F)(F)F)ccc1C(=O)N(C)c1ccc(SC(F)(F)F)cc1 [Compound 3-17] |  |  | D or higher |
| CC[S+]([O-])c1cc(C(F)(F)F)ccc1C(=O)N(C)c1ccc(C(C)C)cc1 (centres unmarked) [Compound 3-19] |  |  | D or higher |

| SMILES | acaricidal effect (corrected mortality rate) activity level (Tetranychus urticae) | nematicidal effect (number of root nodules relative to non-treatment plot) activity level (Meloidogyne incognita) | control effect (control rate, lesion area) activity level [1] |
| --- | --- | --- | --- |
| CC[S+]([O-])c1cc(C(F)(F)F)ccc1C(=O)N(C)c1ccc(Cl)cc1 (centres unmarked) [Compound 3-22] |  | D or higher |  |
| CC[S+]([O-])c1cc(C(F)(F)F)ccc1C(=O)N(C)c1ccc(Cl)c(Cl)c1 (centres unmarked) [Compound 3-28] |  |  | D or higher |
| CC[S+]([O-])c1cc(C(F)(F)F)ccc1C(=O)N(C)c1ccc(Cl)c(C(F)(F)F)c1 (centres unmarked) [Compound 3-31] |  |  | D or higher |
| CCS(=O)(=O)c1cc(C(F)(F)F)ccc1C(=O)N(C)c1ccc(Cl)c(C(F)(F)F)c1 [Compound 3-32] |  |  | D or higher |
| CC[S+]([O-])c1cc(C(F)(F)F)ccc1C(=O)N(C)c1ccc(I)cc1F (centres unmarked) [Compound 3-34] |  |  | D or higher |
| CCS(=O)(=O)c1cc(C(F)(F)F)ccc1C(=O)N(C)c1ccc(C(F)(F)C(F)(F)F)c(C)c1 [Compound 3-47] |  |  | D or higher |
| CCS(=O)(=O)c1cc(C(F)(F)F)ccc1C(=O)N(C)c1ccc(C(F)(F)C(F)(F)F)c(C)c1C [Compound 3-50] |  |  | D or higher |
| CCSc1cc(C(F)(F)F)ccc1C(=O)Nc1ccc(C(C(F)(F)F)C(F)(F)F)cc1 [Compound 4-5] |  | D or higher | D or higher |
| CCS(=O)(=O)c1cc(C(F)(F)F)ccc1C(=O)Nc1ccc(C(F)(F)C(F)(F)C(F)(F)C(F)(F)F)cc1C [Compound 4-16] |  |  | D or higher |
| CC[S+]([O-])c1cc(C(F)(F)F)ccc1C(=O)Nc1ccc(F)c(C(F)(F)F)c1F (centres unmarked) [Compound 4-21] |  |  | D or higher |
| CCS(=O)(=O)c1cc(C(F)(F)F)ccc1C(=O)Nc1ccc(F)c(C(F)(F)F)c1F [Compound 4-22] |  |  | D or higher |
| CC[S+]([O-])c1cc(C(F)(F)F)ccc1C(=O)Nc1ccc(C(F)(C(F)(F)F)C(F)(F)F)cc1Cl (centres unmarked) [Compound 4-27] |  |  | D or higher |
| CCSc1cc(C(F)(F)F)ccc1C(=O)Nc1ccc(C(F)(C(F)F)C(F)(F)F)cc1Cl (centres unmarked) [Compound 5-51] |  |  | D or higher |
| CCS(=O)(=O)c1cc(C(F)(F)F)ccc1C(=O)Nc1ccc(C(F)(C(F)(F)F)C(F)(F)Br)cc1Cl (centres unmarked) [Compound 5-59] |  |  | D or higher |
| CC[S+]([O-])c1cc(C(F)(F)F)ccc1C(=O)Nc1ccc([Si](C)(C)C)cc1C (centres unmarked) [Compound 5-64] |  |  | D or higher |
| CC[S+]([O-])c1cc(C(F)(F)F)ccc1C(=O)Nc1ccc(OC(F)(F)C(F)F)cc1C (centres unmarked) [Compound 5-70] |  |  | D or higher |
| CCS(=O)(=O)c1cc(C(F)(F)F)ccc1C(=O)Nc1ccc(OC(F)(F)C(F)F)cc1C [Compound 5-71] |  |  | D or higher |
| CC[S+]([O-])c1cc(C(F)(F)F)ccc1C(=O)Nc1ccc(OC(F)(F)F)cc1Br (centres unmarked) [Compound 5-73] |  |  | D or higher |
| CCc1cc(OC(F)(F)F)ccc1NC(=O)c1ccc(C(F)(F)F)cc1S(=O)(=O)CC [Compound 5-77] |  |  | D or higher |
| CCS(=O)(=O)c1cc(OC)ccc1C(=O)Nc1ccc(C(F)(C(F)(F)F)C(F)(F)F)cc1C [Compound 6-12] |  |  | D or higher |
| CCSc1cc(SC(F)(F)F)ccc1C(=O)Nc1ccc(C(F)(C(F)(F)F)C(F)(F)F)cc1Cl [Compound 6-22] |  |  | D or higher |
| CC[S+]([O-])c1cc(SC(F)(F)F)ccc1C(=O)Nc1ccc(C(F)(C(F)(F)F)C(F)(F)F)cc1Cl (centres unmarked) [Compound 6-23] |  |  | D or higher |
| CCS(=O)(=O)c1cc(SC(F)(F)F)ccc1C(=O)Nc1ccc(C(F)(C(F)(F)F)C(F)(F)F)cc1Cl [Compound 6-24] |  |  | D or higher |
